Assay results published in patent US12060588B2, “Methods of editing DNA methylation” (Whitehead Institute for Biomedical Research, priority 2016, dated 2024).

Experiments:
Npas4 = Npas4 expression in mouse cortical neurons (RT-qPCR); format: cell-based; conditions: with the 4 BDNF promoter IV gRNAs
Experimental: FIGS. 11A-11L depict targeted demethylation of BDNF promoter IV by dCas9-Tet1 in neurons. […] PAM for each gRNA is highlighted by a red box. […] Note that cultured neurons were treated with AraC on DIV2 to halt cell division in glial cells and neural progenitors. […] FIG. 11C provides EDU labeling analysis for the mouse primary neurons over the course of KCl treatment for 24 hrs. Note that extremely few EDU positive cells were observed. Stained in red for EDU, green for MAP2 and DAPI for nuclei. Scale bar: 500 um. FIG. 11D Upper panel: provides quantification of neuronal density over the course of KCl treatment. The post-mitotic neuron density remains steadily around 4.5×10^4/cm2 over time. Bars represent mean±SD of three experimental replicates. Lower panel: provides quantification of the EDU positive cells over the course of KCl treatment. Less than 2% of the cells are EDU-positive over 24 hrs. Bars represent mean±SD of three experimental replicates. FIG. 11E provides confocal micrographs of BDNF induction by ectopic expression of dCas9-Tet1 and a set of 4 gRNAs targeting BDNF promoter IV. Stained in green for BDNF, magenta for MAP2, red for Cherry and blue for DAPI. […]
Cells were harvested using Trizol followed by Direct-zol (Zymo Research), according to manufacturer's instructions. […] Quantitative PCR reactions were prepared with SYBR Green (Invitrogen), and performed in 7900HT Fast ABI instrument. […]

[1] = system: Snrpn promoter region and adjacent Dazl locus; assay: Bisulfite sequencing of the Dazl-Snrpn region in mESCs; format: cell-based, mouse; conditions: with target gRNAs
Experimental: FIGS. 1A-IF depict activation of the Daz1-Snrpn-GFP reporter by dCas9-Tet1. […] FIG. 1B is a schematic representation of targeting the Snrpn promoter region by dCas9-Tet1 with specific gRNAs to erase methylation and activate GFP expression. […] Percentage of GFP positive cells were calculated by flow cytometric analysis of these cells 3-day post infection, and shown as the mean percentages of GFP positive cells±SD of two biological replicates. Note that the percentages of GFP-positive cells are expressed as the fraction of infected Cherry-positive cells. […] Scale bar: 250 um. Right: provides percentages of GFP positive colonies were quantified, and shown as the mean percentages of GFP positive cells±SD of two biological replicates. […] FIG. 1F provides methylation levels of individual CpGs in the Snrpn promoter region and the adjacent Dazl locus. Shown is the mean percentage±SD of two biological replicates.
Demethylation of specific CpGs: To test whether defined sequences could be demethylated, we introduced the dCas9-Tet1 construct in combination with gRNAs to target the Snrpn-GFP reporter inserted into the Dazl promoter (FIG. 1B and FIG. 9A). […] To assess the activation efficiency by dCas9-Tet1 with target gRNAs, we analyzed the cells infected by both viruses using FACS. […] We further analyzed the GFP-positive and -negative populations within infected Cherry-positive cells. […]

Substance: dCas9-Tet1: catalytically inactive Cas9 (dCas9) fused through NLS to the Tet1 catalytic domain, SEQ ID NO: 159; lentivirally expressed with gRNAs
- induction of Npas4 expression (Npas4): did not induce Npas4 expression
- methylation status of Snrpn promoter region and adjacent Dazl locus [1]: robust demethylation only in the Snrpn promoter region but not the adjacent Dad locus
